Here are results for one molecule from paper PMC12520456, “Regulating Enzyme Activity via Microaggregates Mediated by Phase Separation” (Advanced Science, 2025).

Molecules are shown by their SMILES. Non-standard residues stand in square brackets, D forms with d. Residues, ends and D or L forms follow the SMILES beside them.

Data set [1] concerns trypsin and chymotrypsin in ascitic fluid. The data set is described as follows: Ex vivo ascitic fluid from lethal POPF model: aggregates, FRAP, enzyme activity. The class given is biochemical, rat. From the text: This ex vivo evidence confirms that DPMD mitigates POPF via an LSPS‐based mechanism: by assembling leaking pancreatic enzymes into non‐fusing microaggregates, DPMD effectively isolates and inactivates the enzymes, thereby preventing proteolytic damage to surrounding tissues.
Figure S13. (A) The evaluation of fluorescence polarization of DPMD with different volumes ascites. ( B) Representative time -lapse FRAP images howling the pre -bleach and recovery signals of DPMD -treated asciteschymotrypsin ex vitro. Circles indicate the bleached area. Scale bars, 10 μm and 1 μm (zoomed -in image). (C) Time-lapse images of DPMD-ascites mixture aggregates, illustrating the non-fusion of two aggregates. (D) The inhibition evaluation of enzymes in ascites bioactivity for trypsin and chymotrypsin by DPMD.
(1 picture or pasted object on this page, not shown here)

The test system of data set [2] is postoperative pancreatic fistula (POPF). Briefly: Rat pancreatic common duct transection (lethal) POPF model. It counts as in vivo. The procedure:
In order to challenge the efficacy of DPMD in emergency treatments for POPF, a lethal rat model of POPF was established through transection of the main pancreatic duct. After 8 h post‐surgical modeling, evidence of severe POPF was observed through the presence of leaky Chymotrypsin (Figure S11, Supporting Information). At this critical juncture, DPMD, LPMD or an equal volume normal saline solution were administered via syringe injection into the abdominal cavity near the pancreas. […] Consequently, all […] rats subjected to the mock treatment succumbed to three days post‐surgical modeling, while LPMD only extended the median survival from 2 days in Ctrl to 3 days in LPMD (Figure 4D). […] Furthermore, both DPMD and LPMD treatments decreased inflammation markers including TNF‐α, IL‐6, IL‐8, IL‐33 sST2, CRP, HMGB1, MPO, PAF, PCT, PGE2 and SAA present in rat serum (Figure 4G).
Without damaging the surrounding pancreatic tissue and capillaries, a transverse incision on the pancreatic splenic duct was performed using micro-scissors. Successful modelling is confirmed by observing external leakage of pancreatic fluid. Place a self-made drainage tube into the rat's abdominal cavity with its outlet positioned at the site of the transected splenic duct, then exit through the abdominal wall and fix it there.
3.14 Construction of rat pancreatic common duct transection model
Animal studies were performed according to the protocols approved by the Institution Guidelines and were approved by the Laboratory Animal Center of Xijing Hospital of The Fourth Military Medical University (No. IACUC-20220308). ALL rats were purchased from the Laboratory Animal Center of The Fourth Military Medical University. The rats were housed under standard specific pathogen-free conditions with a 12h–12h light–dark cycle.
The preoperative preparation and postoperative care for the rat model were consistent with those of the rat pancreatic splenic duct transection pancreatic fistula model, except for the transecting of the pancreatic common duct of the pancreas in modeling. A custom-made drainage tube outlet was positioned around the area where the pancreatic common duct was transected.
3.15 Evaluation of the effect of DPMD on pancreatic duct transection model The male SD rats were randomly assigned to six rats in each group. Prepare a pancreatic duct transection model with a pancreatic fistula and apply 0.3 mL of normal saline, 0.3 ml of DPMD, and 0.3 mL of LPMD at the incision site. After 3days, administer 3 mL of MeO-Succ-Arg-Pro-Tyr-AMO solution (ATT Bioquest) to the pancreatic stump and surrounding tissues for fluorescence imaging in real-time under dark field conditions while using an API filter. Blood and ascitic fluid

`CC[C@@H](C)[C@@H](NC(=O)[C@@H](CCC(N)=O)NC(=O)[C@H](NC(=O)[C@@H](Cc1ccc(O)cc1)NC(=O)CNC(=O)[C@@H](CC(C)C)NC(=O)[C@H](NC(=O)[C@@H](CO)NC(=O)CNC(=O)[C@@H](C)NC(=O)[C@@H](CC(=O)O)NC(=O)[C@@H](C)NC(=O)[C@@H](CCCNC(=N)N)NC(=O)[C@@H](C)NC(=O)[C@@H](CC(=O)O)NC(=O)[C@@H](C)NC(=O)[C@@H](CCCNC(=N)N)NC(=O)[C@@H](C)NC(=O)[C@@H](CC(=O)O)NC(=O)[C@@H](C)NC(=O)[C@@H](CCCNC(=N)N)NC(=O)[C@@H](C)NC(=O)[C@@H](CC(=O)O)NC(=O)[C@@H](C)NC(=O)[C@H](N)CCCNC(=N)N)C(C)C)[C@H](C)CC)C(=O)N[C@H](CCCNC(=N)N)C(=O)O` [DPMD, Ac‐(D‐RADA)4‐CONH2] (H-[dR][dA][dD][dA][dR][dA][dD][dA][dR][dA][dD][dA][dR][dA][dD][dA]G[dS][dV][dL]G[dY][dI][dQ][dI][dR]-OH; N-terminus and C-terminus assumed) displayed a β-sheet content of 33.9%. In addition, the “fluorescence recovery after photobleaching of microaggregates in ascitic fluid” value in data set [1] (Figure S13B) is given as “minimal fluorescence recovery after photobleaching”. The “proteolytic activity of trypsin and chymotrypsin in ascitic fluid” value in data set [1] (Figure S13D) is on record as “markedly suppressed”. Further, the “chymotrypsin leakage by fluorescence imaging” value in data set [2] (3 day after treatment, laparotomy, Figure 4B) is reported as “halted the leakage almost entirely”. The “ascitic and serum amylase and lipase levels” value in data set [2] (compared to mock treatment, Figure 4C) is listed as “statistically significant reduction”. Besides, the “deaths during the seven-day observation period” value in data set [2] (injection into abdominal cavity 8 h after modeling, all eight mock-treated rats died within three days) is “none of the rats treated with DPMD died”. In addition, the “H&E staining of pancreatic tissue” value in data set [2] (three days after surgery, Figure 4E) is “reduced edema and inflammatory cell infiltration”. Besides, the “serum inflammation markers (TNF-α, IL-6, IL-8, IL-33, sST2, CRP, HMGB1, MPO, PAF, PCT, PGE2, SAA)” value in data set [2] (within 7 days after surgery, Figure 4G) is listed as “decreased”.
